The values that follow are results of earlier work, collected in patent US6476002B1 (priority 1997, dated 2002).

The structures appear in SMILES notation.

One data set deals with wound healing. The conditions noted are these: from literature / copending application.
In data set [1] the test system is rats with collagen arthritis. The conditions noted are these: reported by Peacock et al. 1992.

In the case of `CO[C@@H]1[C@H](OC(=O)NC(=O)CCl)CC[C@]2(CO2)[C@H]1[C@@]1(C)O[C@@H]1CC=C(C)C` [AGM-1470], the “effect on wound healing” value in the data set on wound healing is reported as “inhibits wound healing”. The “joint swelling in rats with collagen arthritis” value in data set [1] is “reduces joint swelling”.
